According to US20250090510A1, “eIF4G1-eIF1 INHIBITORS AND USE THEREOF” (YEDA RESEARCH AND DEVELOPMENT CO. LTD., priority 2022, published 2025):

System: HEK293T cells
Experiment: Cell cycle analysis, propidium iodide flow cytometry
Format: cell-based, human
Conditions: i14G1-10 20 uM, 16 hours; for cells in S phase / sub-G1 dead cells: i14G1-12 1 uM
Procedure: FIGS. 3A-F: i14G1-10 and i14G1-12 inhibit mRNA translation and sensitize cell survival of eIF4G1 and eIF1 depleted cells. (3A) In-vitro translation using rabbit reticulocyte lysate which was pre-incubated with different concentrations of i14G1-10 or i14G1-12 for 10 minutes followed by the addition of capped firefly luciferase mRNA. After 90 minutes at 30° C., the luminescence signal was measured and the IC50 was calculated. The data represents mean±SEM of 6 independent repeats. (3B) HEK293T cells were treated with DMSO (vehicle control), and sub-cytotoxic concentrations of i14G1-10 (20 μM) and i14G1-12 (10 μM) for 3h. Cell lysates were then subjected to sucrose gradient sedimentation to obtain polysome profiles. (3C) HEK293T cells were treated with the indicated concentrations of i14G1-10 and i14G-12 for 3 h, followed by the addition of puromycin (10 μg/ml) for 5 minutes, after which cells were lysed and analyzed by western blot using an anti-puromycin antibody and anti-GAPDH antibody that serves as a loading control. The graph represents the mean±SEM chemiluminescence signal intensity of puromycin labeling normalized to GAPDH of 3 independent experiments. The calculated IC-50 is shown. (3D) HEK293T cells were transfected with either control or eIF4G1 siRNA in the absence or presence of eIF4G1 expression plasmid. As the eIF4G1 siRNA pool is directed against the 3′UTR, which is absent from the eIF4G1 expression plasmid, the exogenous eIF4G1 is resistant to the siRNA. 48 h after transfection, cells were treated with the indicated concentrations of i14G1-10 and i14G-12 for 3 h, followed by a 5 minutes puromycin pulse as described in 3C. The graph represents the mean±SEM chemiluminescence signal intensity of puromycin labeling normalized to GAPDH of 3 independent experiments. The calculated IC-50 is shown. (3E) The graphs represent cell viability of the indicated cell lines in the presence of increasing concentrations of i14G1-10 and i14G1, analyzed by Luminescent Cell Viability Assay. (3F) Pie charts showing the cell cycle distribution of HEK293T cells treated with DMSO, i14G1-10 and i14G1-12.
Cell cycle and cell viability analyses. HEK293T were treated with DMSO, i14G1-10 (20 uM) and i14G1-12 (1 uM) for 16 hours and then were trypsinized, washed twice with ice cold PBS and fixed overnight in 70% ethanol. Then cells were washed twice with ice cold PBS and resuspended in staining buffer (0.1% triton X-100, 2 mg RNase A and […]), and incubated at 37° C. for 15 minutes. Cells were monitored by BC LSRII flow cytometer and data was analyzed using Modfit Lt Software.
This was true in breast cancer (MCF7), lung cancer (A549), colorectal cancer (HCT116), ovarian cancer (OVCAR8) and in a bone cancer sarcoma cell line (U20S). To examine whether the growth defect is associated with cell cycle progression, control and drug treated cells were subjected to DNA staining by propidium iodide and then a flow cytometry analysis to determine their distribution in the sub-G1 (dead cells), G1, S and G2/M phases of the cell cycle.

Row | Structure (SMILES) | cells in G2/M phase of the cell cycle | cells in S phase | sub-G1 dead cells
1 | O=C(/C=C/Sc1ccc(C(F)(F)F)cn1)c1ccccc1 [i14G1-10] | dramatic accumulation of cells in the G2/M phase | reduction in S | elevation in sub-G1 dead cells
2 | Cn1ccnc1S/C(=C/C=C(C#N)C#N)c1ccc(Cl)cc1 [i14G1-12] |  | reduction in S | elevation in sub-G1 dead cells
